Broadly, the EC50 is the midpoint of the concentration-response curve. High values mean lower potency in that assay, low ones higher potency in that assay. A word on the Emax: it is the maximal effect, on the per cent scale that the assay sets.

From US10745402B2, “Morphinan derivatives and use thereof” (PURDUE PHARMA L.P., priority 2017, dated 2020) come the findings set out here.

Data set [1] concerns the target T1, κ-opioid receptor (Homo sapiens, UniProt P41145). Briefly: β-Arr2 activity response in U2OS cells, κ-opioid receptor. It counts as cell-based. Set-up: expressed in transfected cells; host or cells: U2OS (U-2 OS). As to the method: (§1) TABLE 4 provides activity response of certain Compounds of the present disclosure to the μ- and κ-opioid receptors that was determined in the above-described functional assays using U2OS cells.

The target in data set [2] is T2, μ-opioid receptor (Homo sapiens, UniProt P35372). Briefly: β-Arr2 activity response in U2OS cells, μ-opioid receptor. Format: cell-based. As to the method:
as §1

For data set [3], the target named is T1, κ-opioid receptor. In words: [35S]GTPγS functional assay, κ-opioid receptor (HEK-293 or CHO cells). It counts as biochemical. On the set-up: made in house; host or cells: HEK-293 or CHO. The procedure: Membranes from HEK-293 cells, CHO or U-2 OS cells expressing the recombinant human kappa opioid receptor (κ) were prepared by lysing cells in ice cold hypotonic buffer (2.5 mM MgCl2, 50 mM HEPES, pH 7.4) (10 mL/10 cm dish) followed by homogenization with a tissue grinder/Teflon pestle. Membranes were collected by centrifugation at 30,000×g for 15 min at 4° C. and pellets were resuspended in hypotonic buffer to a final concentration of 1-3 mg/mL. Protein concentrations were determined using the BioRad protein assay reagent with bovine serum albumen as standard. Aliquots of κ receptor membranes were stored at −80° C.
Functional [^35S]GTPγS binding assays were conducted as follows. κ opioid receptor membrane solution was prepared by sequentially adding final concentrations of 0.026 μg/μl κ membrane protein (in-house), 10 μg/mL saponin, 3 μM GDP and 0.20 nM [^35S]GTPγS to binding buffer (100 mM NaCl, 10 mM MgCl2, 20 mM HEPES, pH 7.4) on ice. […] Fifty μl/well scintillation cocktail (Perkin Elmer, Shelton, Conn.) was added and plates were counted in a Packard Top-Count for 1 min/well.
(§2) TABLE 3 provides activity response of certain Compounds of the present disclosure to the μ- and κ-opioid receptors that was determined in the above-described functional assays using HEK-293 or CHO cells.

Data set [4] concerns Sprague-Dawley rats. Briefly: Hot plate analgesia in rats (observation of sedation). It counts as in vivo, rat. As to the method:
To assess the actions of a Compound of the present disclosure for the treatment or prevention of acute pain, the rat hot plate test can also be used. Rats are tested using a hot plate apparatus consisting of a clear plexiglass cylinder with a heated metal floor maintained at a temperature of 48-52° C. (Model 7280, commercially available from Ugo Basile of Italy). […] Hot plate latencies are measured immediately before (pre-treatment) and 1, 3, and 5 hours following administration of a Compound of the present disclosure. The nocifensive behavioral endpoint is defined as any of the following: 1) paw withdrawal, either as a sustained lift or with shaking or licking; 2) alternating foot lifting; 3) escape or attempted escape from the testing device; or 4) vocalization. Data are expressed as response latency(s) and the percentage of the maximal possible effect is calculated as described above for the tail flick test. […]
Male, Sprague-Dawley rats (Harlan, weight 211-246 g; n=5-10/group) were baselined (“BL”) for latency on a hot plate which was set to 52° C. the day prior to dosing. […] The next day, vehicle (0.5% MC) po, Compound 1 po; or morphine sc, the positive control, were administered and thermal latency was assessed 1, 3, and 5 hours after dosing.
Data were analyzed by a two-way ANOVA using a Bonferroni Multiple Comparisons test, where *P<0.05 and ****P<0.0001 vs vehicle. […]

In data set [5] the target is T2, μ-opioid receptor. In words: [35S]GTPγS functional assay, μ-opioid receptor (HEK-293 or CHO cells). Set-up: made in house; host or cells: HEK-293 or CHO. Format: biochemical. The procedure: [^35S]GTPγS functional assays were conducted using freshly thawed μ-receptor membranes prepared in-house from a cell line expressing recombinant μ opioid receptor in a HEK-293, CHO or U-2 OS cell background, or purchased from a commercial source (Perkin Elmer, Shelton, Conn.; or DiscovRx, Fremont, Calif.). Assay reactions were prepared by sequentially adding the following reagents to binding buffer (100 mM NaCl, 10 mM MgCl2, 20 mM HEPES, pH 7.4) on ice (final concentrations indicated): membrane protein (0.026 mg/mL), saponin ([…]), GDP ([…]) and [^35S]GTPγS (0.20 nM; Perkin Elmer, Shelton, Conn.). The prepared membrane solution (190 μl/well) was transferred to 96-shallow well polypropylene plates containing 10 μl of 20× concentrated stock solutions of the agonist [D-Ala^2, N-methyl-Phe^4 Gly-ol^5]-enkephalin (DAMGO) prepared in dimethyl sulfoxide (DMSO). Plates were incubated for 30 min at about 25° C. with shaking. […] BetaScint scintillation cocktail (Perkin Elmer, Shelton, Conn.) was added (50 μl/well) and plates were counted using a Packard Top-Count for 1 min/well. Data were analyzed using the sigmoidal dose-response curve fitting functions in GraphPad PRISM v. […]
as §2

In data set [6] the test system is Sprague-Dawley rats. In words: Conditioned Place Preference (CPP) in rats. It counts as in vivo, rat. The conditions noted are these: po in 0.5% MC, day 8, one-way ANOVA. The source says:
Conditioned Place Preference (CPP) test is a test typically used to measure drug liking.
Male, Sprague-Dawley rats (Harlan, weight 213-240 g) at the beginning of the dosing paradigm were baselined (“BL”) for initial preference (pretest; day 1) using automated conditioning chambers (MedAssociates, Fairfax, Vt.); n=10/group. An unbiased counterbalanced design was used in which rats were randomly assigned to each group with respect to compartment pairings based on weight.
Compound 1 was formulated in 0.5% MC and administered po., while oxycodone, the positive control was dissolved in saline and administered sc.
During the first conditioning session, half of the rats were confined to the black compartment paired with either vehicle (0.5% MC) po, oxycodone sc, or Compound 1 po administration, while the other half were placed in white compartment with similar pairings.
Rats were conditioned on alternate days for 6 total sessions (3 vehicle/3 oxycodone or Compound 1). Control rats received vehicle at each conditioning session. […]
Conditioned Place Preference (CPP) was determined on day 8, and is represented as the difference between the time (seconds) the rat spent in the drug-paired and vehicle-paired compartments. Data are represented as the means±S.E.M., and were analyzed by a one-way ANOVA where *P<0.05 vs vehicle.

T1 sequence (P41145 whole entry): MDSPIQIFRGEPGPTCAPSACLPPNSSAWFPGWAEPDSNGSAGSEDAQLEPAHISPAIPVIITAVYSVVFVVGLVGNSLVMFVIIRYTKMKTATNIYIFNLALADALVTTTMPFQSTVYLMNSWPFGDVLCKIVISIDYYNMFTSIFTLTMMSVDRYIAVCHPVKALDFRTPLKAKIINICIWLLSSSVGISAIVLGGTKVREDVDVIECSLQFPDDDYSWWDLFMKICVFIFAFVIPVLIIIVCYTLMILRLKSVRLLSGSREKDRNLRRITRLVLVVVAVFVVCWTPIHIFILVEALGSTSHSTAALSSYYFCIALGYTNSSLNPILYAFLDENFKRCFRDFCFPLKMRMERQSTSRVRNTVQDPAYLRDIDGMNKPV
T2 sequence (P35372 whole entry, species assumed): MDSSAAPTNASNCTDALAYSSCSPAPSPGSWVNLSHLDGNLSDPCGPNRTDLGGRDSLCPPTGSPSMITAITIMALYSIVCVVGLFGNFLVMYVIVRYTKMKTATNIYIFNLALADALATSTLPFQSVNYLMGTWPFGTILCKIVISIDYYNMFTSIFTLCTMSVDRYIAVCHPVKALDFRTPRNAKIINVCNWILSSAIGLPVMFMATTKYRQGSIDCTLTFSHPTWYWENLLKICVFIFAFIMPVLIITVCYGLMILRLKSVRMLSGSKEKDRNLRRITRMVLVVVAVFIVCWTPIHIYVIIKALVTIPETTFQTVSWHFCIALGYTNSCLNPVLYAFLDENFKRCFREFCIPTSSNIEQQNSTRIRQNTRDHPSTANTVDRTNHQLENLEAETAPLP

For `CN1CC[C@]23CCCC[C@@]2(O)[C@H]1Cc1ccc(C(N)=O)cc13` [Compound 1, (4bS,8aS,9R)-8a-hydroxy-11-methyl-6,7,8,8a,9,10-hexahydro-5H-9,4b-(epiminoethano)phenanthrene-3-carboxamide], the EC50 is above 20000 nM at κ-opioid receptor [1], 36.7 ± 5.4 nM at μ-opioid receptor [2], 620 ± 91.1 nM on κ-opioid receptor [3] and 44.2 ± 11.9 nM at μ-opioid receptor [5]. The Emax on κ-opioid receptor [1] (U2OS cells) was -0.83 ± 0.17%; at μ-opioid receptor [2] (U2OS cells), 8.58 ± 0.3%; on κ-opioid receptor [3] (HEK-293 or CHO cells, relative to U69,593, read-out: GTPγD κ Emax), 14.9 ± 0.63%; at μ-opioid receptor [5] (HEK-293 or CHO cells, relative to DAMGO, read-out: GTPγD μ Emax), 50.5 ± 0.95%. Also, the “appearance of animals (sedation) in hot plate study” value in the data set with Sprague-Dawley rats [4] (30-75 mg/kg po) is on record as “appeared to be sedate”. The “Conditioned Place Preference compared to the vehicle group” value with Sprague-Dawley rats [6] is listed as “not statistically significant”.

Consider `CN1CC[C@]23c4c5ccc(O)c4O[C@H]2[C@@H](O)C=C[C@H]3[C@H]1C5` [morphine, reference compound], for which the “appearance of animals (sedation) in hot plate study” value with Sprague-Dawley rats [4] (sc, positive control) is reported as “appeared to be sedate”.
